Measured values published in publication PMC8228600, “Design, Synthesis, In Vitro and In Vivo Evaluation of Heterobivalent SiFAlin-Modified Peptidic Radioligands Targeting Both Integrin αvβ3 and the MC1 Receptor—Suitable for the Specific Visualization of Melanomas?” (Pharmaceuticals, 2021).
Like-named read-outs stand apart in the source and are kept apart here.

What was measured:
[1] = logD(7.4) determination (n-octanol / phosphate buffer distribution); assay type: physicochemical; conditions: n-octanol / 0.05 M phosphate buffer pH 7.4; mean ± SD
Protocol: Since high lipophilicity of peptidic radiotracers can lead to a high plasma protein binding, resulting in unspecific organ and high liver uptakes, thus negatively impact tumor visualization, the lipophilicity of the HBPLs was determined to get an approximate estimation of the in vivo biodistribution behavior of the radioligands. Therefore, the logD(7.4) values of the SiFAlin-modified HBPLs [^18F]1–[^18F]6 were determined via their distribution coefficient between n-octanol and phosphate buffer at pH 7.4.
The radiotracer solutions were first diluted with 0.9% NaCl solution to give a final EtOH concentration of <10%. A total of 5 MBq of the respective radiotracer in solution was added to 1.6 mL of a mixture of n-octanol and 0.05 M phosphate buffer (pH = 7.4) (v/v, 1/1), and the solution was vigorously shaken for 5 min. Subsequently, the phases were separated by centrifugation at 13.4 rpm for 2 min, and 100 μL of organic and aqueous phases were collected. The activity of each sample was measured using a gamma counter. The lipophilicity of each compound was determined in triplicate in three independent experiments.

[2] = Ex vivo biodistribution in tumor-bearing nude mice (non-tumor tissues); conditions: male, Balb/cAnNRj-Foxn1nu/nu (nude), mouse, iv, total radioactivity, ex vivo after PET/CT scan, i.v., n = 3
Protocol: (§1) For the evaluation of the in vivo pharmacokinetics, the two most promising HBPLs—[^18F]2 with the highest affinity to both target receptors and [^18F]4 with the highest hydrophilicity and still reasonable binding affinities—were selected. For PET/CT imaging, 6-week-old male nude mice (Balb/cAnNRj-Foxn1^nu/nu) were subcutaneously injected with 5 × 10^5 B16F10 cells into the right flank and 2.0–2.5 × 10^6 U87MG cells into the left flank to generate the respective receptor-positive tumors. When the tumors reached a sufficient size for imaging, each mouse was administered 4.15 ± 2.28 MBq of [^18F]2 or 3.95 ± 2.06 MBq of [^18F]4 via the lateral tail vein under isoflurane anesthesia. To determine the receptor specificity of both peptide parts of the labeled HBPLs and their relative contribution to overall tumor uptake, blocking experiments were also performed. […] After i.v. injection of the tracers, a dynamic PET scan, followed by a CT scan, was performed. The resulting PET/CT images and time–activity curves (TACs) are depicted in Figure 6, Figure 7 and Figure 8. After completion of the diagnostic scans, the mice were sacrificed, their organs (blood, spleen, liver, kidney, pancreas, lung, heart, brain, bone, muscle, tail, tumors, stomach, colon and small intestine) were collected and measured in a γ-counter for ex vivo biodistribution (see Supplementary Materials Table S1 for detailed results).
(§2) Each male nude mouse (six weeks old) was injected subcutaneously with 5 × 10^5 B16F10 cells into the right flank and 2.0–2.5 × 10^6 U87MG cells into the left flank. The health status and tumor growth of the mice were monitored regularly until the animals could be examined after 15–21 days, depending on the tumor size. For the in vivo experiments, the ^18F-radiolabeled compound was diluted in 0.9% saline to give a final EtOH concentration of <10%. Each mouse was injected with 4.15 ± 2.28 MBq of [^18F]2 or 3.95 ± 2.06 MBq of [^18F]4 via the lateral tail vein under isoflurane anesthesia. […] Each ^18F-labeled compound was studied with or without blocking in at least three mice. Mice were measured under isoflurane anesthesia in a small PET/SPECT/CT animal imaging system. First, a dynamic PET scan was performed over 90 min and the scan was framed in 29 timeframes (10 × 1 min, 10 × 2 min, 6 × 5 min, 3 × 10 min). Images were reconstructed using 12 iterations, a maximum likelihood expectation maximization (MLEM) algorithm including corrections for scattered radiation and decay and a voxel size of 0.5 mm. All PET scans were immediately followed by CT acquisition at a voltage of 45 kV and a current of 400 μA. The images were reconstructed using the filtered back projection (FBP) algorithm with a voxel size of 250 μm. The analysis of the data, including the generation of TACs of the kidneys, liver and tumors and the MIPs, was performed via PMOD (v3.8). For ex vivo biodistribution, the mice were sacrificed directly after the PET/CT scan. Organs (blood, spleen, liver, kidneys, pancreas, lungs, heart, brain, bone, muscle, tail, tumors, stomach, colon and small intestine) were collected, weighed and their radioactivity measured in a γ-counter. The percentage injected dose per gram (% ID/g) of each tissue was calculated from the determined values, organ weights, reference values and injected activity.

B16F10 and U87MG tumors = assay: In vivo dynamic PET/CT imaging and time–activity curves; set-up: species or system nude mice (Balb/cAnNRj-Foxn1nu/nu)
Protocol: as §1
Briefly, 4–5-week-old male nude mice (Balb/cAnNRj-Foxn1^nu/nu) were obtained from Janvier. A dynamic PET scan over 90 min and a subsequent CT image over 20 min were acquired using a triple-modality Bruker Albira II small-animal PET/CT/SPECT scanner. Three animals were studied per group.
as §2

For CCCC[C@H](NC(=O)CNC(=O)CNC(=O)CCOCCOCCOCCOCCOCCOCCOCCOCCOCCC(=O)NCCCN(CCCNC(=O)CCOCCOCCOCCOCCOCCOCCOCCOCCOCCC(=O)NCCCC[C@@H]1NC(=O)[C@@H](Cc2ccccc2)NC(=O)[C@H](CC(=O)O)NC(=O)CNC(=O)[C@H](CCCNC(=N)N)NC1=O)CC(=O)N[C@@H](CCCCNC(=O)CCC[N+](C)(C)Cc1ccc([Si](F)(C(C)(C)C)C(C)(C)C)cc1)C(N)=O)C(=O)N[C@H]1CC(=O)NCCCC[C@@H](C(N)=O)NC(=O)[C@H](Cc2c[nH]c3ccccc23)NC(=O)[C@H](CCCNC(=N)N)NC(=O)[C@@H](Cc2ccccc2)NC(=O)[C@H](Cc2c[nH]cn2)NC1=O [[^18F]4], the logD [1] was -1.39 ± 0.03, the tissue uptake at 1.5 h ([2]; blood, NDP blocking (20 μg coinjected), read-out: ID/g, blood) was 2.07 ± 0.94 %ID/g and the tissue uptake at 1.5 h ([2]; blood, c(RGDyK) blocking (200 μg coinjected), read-out: ID/g, blood) was 0.83 ± 0.06 %ID/g. It also gave a tissue uptake at 1.5 h ([2]; blood, double blocking (NDP + c(RGDyK)), read-out: ID/g, blood) of 1 ± 0.15 %ID/g, a tissue uptake at 1.5 h ([2]; blood, without blocking, read-out: ID/g, blood) of 0.59 ± 0.08 %ID/g and a tissue uptake at 1.5 h ([2]; bone, NDP blocking (20 μg coinjected), read-out: ID/g, bone) of 4.61 ± 0.71 %ID/g. The tissue uptake at 1.5 h ([2]; bone, c(RGDyK) blocking (200 μg coinjected), read-out: ID/g, bone) was 4.99 ± 0.71 %ID/g, the tissue uptake at 1.5 h ([2]; bone, double blocking (NDP + c(RGDyK)), read-out: ID/g, bone) was 2.99 ± 0.78 %ID/g and the tissue uptake at 1.5 h ([2]; bone, without blocking, read-out: ID/g, bone) was 18.1 ± 6.02 %ID/g. It also gave a tissue uptake at 1.5 h ([2]; brain, NDP blocking (20 μg coinjected), read-out: ID/g, brain) of 0.19 ± 0.07 %ID/g, a tissue uptake at 1.5 h ([2]; brain, c(RGDyK) blocking (200 μg coinjected), read-out: ID/g, brain) of 0.07 ± 0.02 %ID/g and a tissue uptake at 1.5 h ([2]; brain, double blocking (NDP + c(RGDyK)), read-out: ID/g, brain) of 0.07 ± 0.01 %ID/g. For the same compound, the tissue uptake at 1.5 h ([2]; brain, without blocking, read-out: ID/g, brain) was 0.1 ± 0.03 %ID/g, the tissue uptake ([2]; colon, NDP blocking (20 μg coinjected), read-out: ID/g, colon) was 0.96 ± 0.13 %ID/g and the tissue uptake ([2]; colon, c(RGDyK) blocking (200 μg coinjected), read-out: ID/g, colon) was 0.8 ± 0.32 %ID/g. The tissue uptake ([2]; colon, double blocking (NDP + c(RGDyK)), read-out: ID/g, colon) was 0.42 ± 0.05 %ID/g, the tissue uptake ([2]; colon, without blocking, read-out: ID/g, colon) was 0.77 ± 0.26 %ID/g and the tissue uptake at 1.5 h ([2]; heart, NDP blocking (20 μg coinjected), read-out: ID/g, heart) was 0.73 ± 0.06 %ID/g. It also gave a tissue uptake at 1.5 h ([2]; heart, c(RGDyK) blocking (200 μg coinjected), read-out: ID/g, heart) of 1.51 ± 0.57 %ID/g, a tissue uptake at 1.5 h ([2]; heart, double blocking (NDP + c(RGDyK)), read-out: ID/g, heart) of 0.52 ± 0.06 %ID/g and a tissue uptake at 1.5 h ([2]; heart, without blocking, read-out: ID/g, heart) of 0.56 ± 0.19 %ID/g. It also gave a tissue uptake at 1.5 h ([2]; kidneys, NDP blocking (20 μg coinjected), read-out: ID/g, kidneys) of 23.1 ± 4.97 %ID/g, a tissue uptake at 1.5 h ([2]; kidneys, c(RGDyK) blocking (200 μg coinjected), read-out: ID/g, kidneys) of 21.4 ± 4.04 %ID/g and a tissue uptake at 1.5 h ([2]; kidneys, double blocking (NDP + c(RGDyK)), read-out: ID/g, kidneys) of 26.5 ± 6.59 %ID/g. The tissue uptake at 1.5 h ([2]; kidneys, without blocking, read-out: ID/g, kidneys) was 7.72 ± 2.57 %ID/g, the tissue uptake at 1.5 h ([2]; liver, NDP blocking (20 μg coinjected), read-out: ID/g, liver) was 5.16 ± 0.56 %ID/g and the tissue uptake at 1.5 h ([2]; liver, c(RGDyK) blocking (200 μg coinjected), read-out: ID/g, liver) was 10.4 ± 3.65 %ID/g. For the same compound, the tissue uptake at 1.5 h ([2]; liver, double blocking (NDP + c(RGDyK)), read-out: ID/g, liver) was 4.04 ± 1.06 %ID/g, the tissue uptake ([2]; liver, without blocking, read-out: ID/g, liver) was 8.3 ± 2.77 %ID/g and the tissue uptake at 1.5 h ([2]; lung, NDP blocking (20 μg coinjected), read-out: ID/g, lung) was 1.25 ± 0.06 %ID/g. For the same compound, the tissue uptake at 1.5 h ([2]; lung, c(RGDyK) blocking (200 μg coinjected), read-out: ID/g, lung) was 2.75 ± 1.04 %ID/g, the tissue uptake at 1.5 h ([2]; lung, double blocking (NDP + c(RGDyK)), read-out: ID/g, lung) was 0.88 ± 0.14 %ID/g and the tissue uptake at 1.5 h ([2]; lung, without blocking, read-out: ID/g, lung) was 3.45 ± 1.15 %ID/g. The tissue uptake at 1.5 h ([2]; muscle, NDP blocking (20 μg coinjected), read-out: ID/g, muscle) was 0.63 ± 0.07 %ID/g, the tissue uptake at 1.5 h ([2]; muscle, c(RGDyK) blocking (200 μg coinjected), read-out: ID/g, muscle) was 1.62 ± 0.42 %ID/g and the tissue uptake at 1.5 h ([2]; muscle, double blocking (NDP + c(RGDyK)), read-out: ID/g, muscle) was 2.58 ± 1.28 %ID/g. It also gave a tissue uptake at 1.5 h ([2]; muscle, without blocking, read-out: ID/g, muscle) of 0.07 ± 0.02 %ID/g, a tissue uptake at 1.5 h ([2]; pancreas, NDP blocking (20 μg coinjected), read-out: ID/g, pancreas) of 0.52 ± 0.12 %ID/g and a tissue uptake at 1.5 h ([2]; pancreas, c(RGDyK) blocking (200 μg coinjected), read-out: ID/g, pancreas) of 0.66 ± 0.19 %ID/g. The tissue uptake at 1.5 h ([2]; pancreas, double blocking (NDP + c(RGDyK)), read-out: ID/g, pancreas) was 0.32 ± 0.04 %ID/g, the tissue uptake at 1.5 h ([2]; pancreas, without blocking, read-out: ID/g, pancreas) was 0.25 ± 0.08 %ID/g and the tissue uptake ([2]; small intestine, NDP blocking (20 μg coinjected), read-out: ID/g, small intestine) was 1.6 ± 0.26 %ID/g. For the same compound, the tissue uptake ([2]; small intestine, c(RGDyK) blocking (200 μg coinjected), read-out: ID/g, small intestine) was 1.46 ± 0.53 %ID/g, the tissue uptake ([2]; small intestine, double blocking (NDP + c(RGDyK)), read-out: ID/g, small intestine) was 0.54 ± 0.08 %ID/g and the tissue uptake ([2]; small intestine, without blocking, read-out: ID/g, small intestine) was 0.07 ± 0.02 %ID/g. It also gave a tissue uptake ([2]; spleen, NDP blocking (20 μg coinjected), read-out: ID/g, spleen) of 1.51 ± 0.15 %ID/g, a tissue uptake ([2]; spleen, c(RGDyK) blocking (200 μg coinjected), read-out: ID/g, spleen) of 1.71 ± 0.62 %ID/g and a tissue uptake ([2]; spleen, double blocking (NDP + c(RGDyK)), read-out: ID/g, spleen) of 0.69 ± 0.1 %ID/g. For the same compound, the tissue uptake ([2]; spleen, without blocking, read-out: ID/g, spleen) was 1.79 ± 0.31 %ID/g, the tissue uptake ([2]; stomach, NDP blocking (20 μg coinjected), read-out: ID/g, stomach) was 1.03 ± 0.11 %ID/g and the tissue uptake ([2]; stomach, c(RGDyK) blocking (200 μg coinjected), read-out: ID/g, stomach) was 0.99 ± 0.16 %ID/g. For the same compound, the tissue uptake ([2]; stomach, double blocking (NDP + c(RGDyK)), read-out: ID/g, stomach) was 0.42 ± 0.03 %ID/g, the tissue uptake ([2]; stomach, without blocking, read-out: ID/g, stomach) was 0.38 ± 0.13 %ID/g and the tissue uptake at 1.5 h ([2]; tail, NDP blocking (20 μg coinjected), read-out: ID/g, tail) was 52.8 ± 5.59 %ID/g. The tissue uptake at 1.5 h ([2]; tail, c(RGDyK) blocking (200 μg coinjected), read-out: ID/g, tail) was 44.3 ± 12.1 %ID/g, the tissue uptake ([2]; tail, double blocking (NDP + c(RGDyK)), read-out: ID/g, tail) was 55.6 ± 7.12 %ID/g and the tissue uptake at 1.5 h ([2]; tail, without blocking, read-out: ID/g, tail) was 25.3 ± 8.43 %ID/g. The “visualization of B16F10 and U87MG tumors by PET/CT” value (B16F10 and U87MG tumors; PET/CT scans, MIPs 50–90 min post-injection) was “clearly visualize”, the “time at which uptakes in kidneys and liver reached their maximum (TACs)” value (B16F10 and U87MG tumors; dynamic PET over 90 min, i.v.) was 5 to 10 min and the “time at which the curves of both tumors approached a plateau (TACs)” value (B16F10 and U87MG tumors; dynamic PET over 90 min, i.v., B16F10 and U87MG tumors) was “about 70 min”.
